The record followed here is patent US12110286B2, “Benzimidazolone derived inhibitors of BCL6” (Cancer Research Technology Limited, priority 2017, dated 2024).

One assay has as its system SU-DHL-4 cells. Briefly: 14-day cell proliferation assay (CellTiter Glo). The settings on record: Homo sapiens, SU-DHL-4, 336 h; SU-DHL4 cells, 14 days. In kind it is cell-based. The method, then:
14-Day Cell Proliferation Assay
SU-DHL-4 cells were seeded in 96-well culture plates at a density of 2000 cells/well in RPMI-1640 medium (Sigma-Aldrich) supplemented with 10% FBS (Gibco). Compounds were initially dispensed into 96-well U-bottom plates using an Echo 550 acoustic dispenser (Labcyte Inc.), then diluted in RPMI-1640 medium and transferred onto the cells. Cells were treated with 8 compound concentrations in duplicate, ranging from 1 nM to 10 μM, in a final DMSO concentration of 0.1% and final volume of 100 μl. Cells were incubated with compound for 14 days, with medium changes at days 3, 7 and 10 carried out as follows: fresh 96-well cell culture plates were prepared containing 100 μl medium plus compound at the assay concentrations (white plates were used on day 10 to optimise luminescence measurement). Assay plates containing cells were vortexed to mix and cell density in one control well was counted using a Coulter Z2 cell counter (Beckman Coulter). The volume of medium containing 2000 cells in the control well was calculated and this volume of cells was transferred from every well of the assay plates to the corresponding well of the fresh plates containing compound. After 14 days, CellTiter Glo reagent (Promega) was added to the medium in each well of the assay plate at a ratio of 1:2, mixed on a plate shaker, then incubated at room temperature for 10 minutes. Luminescence was measured using an Envision plate reader (Perkin Elmer) and the relative luminescence at each compound concentration, compared to DMSO alone, was calculated. G150 were determined using a 4-parameter curve fit in Dotmatics (Bishops Stortford, UK).

Assay [1] concerns the target Trx-6×His-BCL6 (human BCL6 BTB domain covering amino-acid sequence 5-129) (Homo sapiens (Human), UniProt P41182). Briefly: HTRF in vitro assay (BCL6 / BCOR-AF633 peptide). In kind it is binding. The settings on record: further generated data, 1 nM Trx-6×His-BCL6, 300 nM BCOR-AF633 peptide, 0.5 nM anti-6×His-Terbium cryptate; for IC50: read-out: HTRF pIC50 (converted). How it is done: The % inhibition at each concentration was calculated by normalising FRET ratio to the appropriate high (DMSO with all reagents) and low (DMSO without BCL6) controls.

A further assay has as its target endogenous BCL6 protein (Homo sapiens (Human), UniProt P41182). The assay can be described thus: Immunofluorescence-based BCL6 degradation assay. It counts as cell-based. The settings on record: 2 hours with compound. The method, then:
Immunofluorescence-Based BCL6 Degradation Assay
DC50 values (compound concentration at which 50% of endogenous BCL6 protein is degraded) were determined in SUDHL-4 cells (American Type Culture Collection) in an immunofluorescence-based assay using an InCell2200 high content imaging system (GE Healthcare). […] After 20 hours cell culture at 37° C./CO2 incubator, compounds were dispensed in the cell culture plate using ECHO550 acoustic dispenser (Labcyte, Inc.), as 8 point-concentration response (ranging from 5 nM to 10 μM) in 0.67% final DMSO concentration. Cells were incubated with compound for 2 hours at 37° C./CO2 incubator followed by fixation in 4.5% formaldehyde (37% formaldehyde solution, Sigma catalogue F8775) at room temperature for 15 min. […] Blocking and cell permeabilisation were performed by incubating the fixed cells for 1 hour at room temperature in 1×TBS, 5% BSA, 1% Triton X100, followed by three washes on PW384 plate washer. Primary and secondary antibodies were prepared in 1×TBS, 1% BSA, 0.2% Triton X100. […] After incubation in each antibody, cells were washes four times in 1×TBS-0.05% tween on PW384 plate washer. Cells were finally incubated for 60 min with nuclear staining RedDot2 dye (Biotium) at 0.5× the stock concentration in 1×TBS. BCL6 expression in the absence or presence of compound was detected on InCell2200 with 20× objective and quantified on InCell Analyser 3.7.2 workstation (GE Healthcare). The % response at each concentration was calculated by normalising BCL6 expression in the presence of compound to the appropriate high (DMSO) and low (DMSO with 7 μM CCT369260) controls.

For assay [2], the target named is BCL6-NCOR2(SMRT) corepressor protein-protein interaction (Homo sapiens (Human), UniProt P41182). The assay can be described thus: NanoBRET cell assay. In kind it is cell-based. As to conditions: further generated data; transfected HEK293T cells, 6 hr; read-out: NanoBRET cell pIC50 (converted). How it is done: A cellular nano-Bioluminescence Resonance Energy Transfer (nanoBRET) assay (Promega NanoBRET Nano-Glo Detection System, catalogue number N1662) was used to detect inhibition of the BCL6-NCOR2(SMRT) corepressor protein-protein interaction. DNA encoding full length BCL6 and NCOR2 were inserted into pFC32K.NanoLuc and pFC14K.HaloTag vectors (Promega) to produce C-terminal tagged fusion proteins BCL6-nanoLuc and NCOR2-HaloTag, respectively. HEK293T cells were plated (5×10^5) in T75 tissue culture flask and bulk transfected 48 hours later with Fugene 6 (Promega cat. #E2691) reagent and 18 μg total DNA plasmids encoding BCL6-nanoLuc as donor and NCOR2-HaloTag as acceptor, at a donor:acceptor DNA ratio of 1:25. At 24 hr post-transfection, HEK293T cells were collected and stored in liquid nitrogen in 90% FBS (PAN Biotech UK) and 10% DMSO. […] Frozen transfected HEK293T cells were thawed, centrifuged and freezing medium was replaced by phenol red-free OptiMEM+4% FBS (Life Technology). […] Cells were incubated for 6 hr at 37° C./5% C02 then NanoBRET furimazine substrate (Promega) was added to give a final concentration of 10 μM. After a short centrifugation the plates were read on an Envision (Perkin Elmer) plate reader equipped with a LUM/D600 Dual mirror, Lum 450/40 nm bandpass and D605 nm longpass filters, with a 0.2 sec reading to determine the BRET ratio. The % inhibition at each test concentration was calculated by normalising the BRET ratio to the appropriate high and low controls.
(BRET reads energy transfer from a luciferase to a nearby fluorophore.)

SMILES strings stand for the structures.

Compound `C[C@@H]1CN(c2ncc(Cl)c(Nc3ccc4c(c3)n(CCC(C)(C)O)c(=O)n4C)n2)C[C@H](C)C1(F)F` [Example 20a, 5-((5-chloro-2-((3R,5S)-4,4-difluoro-3,5-dimethylpiperidin-1-yl)pyrimidin-4-yl)amino)-3-(3-hydroxy-3-methylbutyl)-1-methyl-1,3-dihydro-2H-benzo[d]imidazol-2-one] came in with a GI50 with SU-DHL-4 cells of 70 nM.
On the same count and under the same terms, then `C[C@@H]1C[C@H](C)CN(c2ncc(Cl)c(Nc3ccc4c(c3)n(CCC(C)(C)O)c(=O)n4C)n2)C1` [Example 20e], with 350 nM.
Consider `CC1CCCN(c2ncc(Cl)c(Nc3ccc4c(c3)n(CCC(C)(C)O)c(=O)n4C)n2)C1.O=CO` (centres unmarked) [Example 20g], for which the “HTRF pIC50” value in assay [1] came out at 6.07. Moreover, growth with SU-DHL-4 cells was halved (GI50) at 750 nM. Also, on endogenous BCL6 protein, the “Degradation assay in SU-DHL4 cells (pDC50)” value (from here on “Degradation assay”) was determined as 6.29.
On to `Cn1c(=O)n(CCC(C)(C)O)c2cc(Nc3nc(N4CCCC(C(F)(F)F)C4)ncc3Cl)ccc21` (centres unmarked) [Example 20h], for which the “HTRF pIC50” value in assay [1] stood at 6.49. Also, the “Degradation assay” value at endogenous BCL6 protein came to 6.30.
Consider `Cn1c(=O)n(CCC(C)(C)O)c2cc(Nc3nc(N4CCC(F)(F)C(CO)C4)ncc3Cl)ccc21` (centres unmarked) [Example 35a, 5-((5-chloro-2-(4,4-difluoro-3-(hydroxymethyl)piperidin-1-yl)pyrimidin-4-yl)amino)-3-(3-hydroxy-3-methylbutyl)-1-methyl-1,3-dihydro-2H-benzo[d]imidazol-2-one], for which, in the assay on SU-DHL-4 cells, the GI50 was determined as 1140 nM.
For the compound `COCC1CN(c2ncc(Cl)c(Nc3ccc4c(c3)n(CCC(C)(C)O)c(=O)n4C)n2)CCC1(F)F` (centres unmarked) [Example 35b, 5-((5-chloro-2-(4,4-difluoro-3-(methoxymethyl)piperidin-1-yl)pyrimidin-4-yl)amino)-3-(3-hydroxy-3-methylbutyl)-1-methyl-1,3-dihydro-2H-benzo[d]imidazol-2-one], the “HTRF pIC50” value in assay [1] was 6.70. In the assay on SU-DHL-4 cells, the GI50 is 1840 nM. For the same compound, at endogenous BCL6 protein, the “Degradation assay” value was 6.35.
The matching figures for `CC1CN(c2ncc(Cl)c(Nc3ccc4c(c3)n(CCC(C)(C)O)c(=O)n4C)n2)CCC1(F)F` (centres unmarked) [Example 35c, 5-((5-chloro-2-(4,4-difluoro-3-methylpiperidin-1-yl)pyrimidin-4-yl)amino)-3-(3-hydroxy-3-methylbutyl)-1-methyl-1,3-dihydro-2H-benzo[d]imidazol-2-one]: 6.53, 440 nM and 6.75.
`Cn1c(=O)n(CCC(C)(C)O)c2cc(Nc3nc(N4CCC(F)(F)CC4)ncc3Cl)ccc21` [Example 35d, 5-((5-chloro-2-(4,4-difluoropiperidin-1-yl)pyrimidin-4-yl)amino)-3-(3-hydroxy-3-methylbutyl)-1-methyl-1,3-dihydro-2H-benzo[d]imidazol-2-one]: the “HTRF pIC50” value in assay [1] is reported as 6.48. In the assay on SU-DHL-4 cells, this compound had a GI50 of 1130 nM. For the same compound, the “Degradation assay” value on endogenous BCL6 protein was found to be 6.59.
As for `C[C@@H]1CN(c2ncc(Cl)c(Nc3ccc4c(c3)n(CCC(C)(C)O)c(=O)n4CCC(C)(C)O)n2)C[C@H](C)C1(F)F` [Example 35j, 5-((5-chloro-2-((3R,5S)-4,4-difluoro-3,5-dimethylpiperidin-1-yl)pyrimidin-4-yl)amino)-1,3-bis(3-hydroxy-3-methylbutyl)-1,3-dihydro-2H-benzo[d]imidazol-2-one], the IC50 in assay [1] is 1740 nM. Moreover, the GI50 with SU-DHL-4 cells was determined as 760 nM. Besides, on endogenous BCL6 protein, the “Degradation assay” value turned out to be 6.43.
`COCC1CCCN(c2ncc(Cl)c(Nc3ccc4c(c3)n(CCC(C)(C)O)c(=O)n4C)n2)C1` (centres unmarked) [Example 35v, 5-((5-chloro-2-(3-(methoxymethyl)piperidin-1-yl)pyrimidin-4-yl)amino)-3-(3-hydroxy-3-methylbutyl)-1-methyl-1,3-dihydro-2H-benzo[d]imidazol-2-one]: the “HTRF pIC50” value in assay [1] was found to be 6.70. Besides, the IC50 in assay [2] was 2340 nM.
For the compound `C[C@@H]1C[C@H](O)CN(c2ncc(Cl)c(Nc3ccc4c(c3)n(CCC(C)(C)O)c(=O)n4C)n2)C1` [Example 35x, 5-((5-chloro-2-((3S,5R)-3-hydroxy-5-methylpiperidin-1-yl)pyrimidin-4-yl)amino)-3-(3-hydroxy-3-methylbutyl)-1-methyl-1,3-dihydro-2H-benzo[d]imidazol-2-one], the “HTRF pIC50” value in assay [1] was determined as 7.01. Further, the IC50 in assay [2] was 3160 nM.
In the case of `Cn1c(=O)n(CCC(C)(C)O)c2cc(Nc3cc(N4CCC(F)(F)CC4)ncc3Cl)ccc21` [Example 36a, 5-((5-chloro-2-(4,4-difluoropiperidin-1-yl)pyridin-4-yl)amino)-3-(3-hydroxy-3-methylbutyl)-1-methyl-1,3-dihydro-2H-benzo[d]imidazol-2-one], the IC50 in assay [1] was 813 nM. For the same compound, the “Degradation assay” value at endogenous BCL6 protein is listed as 6.35.

Usually GI50 stands for the concentration at which growth is held to half of that of the control. Higher therefore signals less potent growth inhibition.
